In patent publication US20230416168A1 (EUROCHEM ANTWERPEN, priority 2020, published 2023):
Each block holds one compound with its values, some of them ahead of it.

Key:
Moorslede soil [1] = test: In soil nitrification inhibition assay, Moorslede soil; conditions: soil, 120 h, 5 days
Method: Top layer (0 to 10 cm) soil samples were collected from different fields in Belgium (Merelbeke and Moorslede). Vegetation on the field trial was removed and samples were taken from different plots. All soil samples were mixed and sieved (mesh size 2.8 mm) to filter large debris and homogenize soil. The soil was stored at 5° C. in plastic containers covered with Saran foil to prevent changes in microbial community composition and to maintain the original soil water content.
Soil water content was determined by drying 20 g soil for 48 h in a 60° C. oven and measuring weight before and after drying. Based on the soil water content (±20%), compound solutions were prepared so that addition of 200 μl compound and 200 μl NH4Cl solution would result in a final compound concentration of 50 μM and a final NH4^+ concentration of 10 mM. Per treatment, 5 small pots were filled with 20 g soil. Next, the soil was treated first with the respective compound solution and then with the NH4Cl solution. Per tray, positive (50 μM DMP) and negative controls (DMSO) were included. Pots were incubated at 21° C. (6 a.m. to 10 p.m. light) for 7 days. Demineralized water was added to the soil every 2 to 3 days to a soil weight of 20 g. In the end, each sample of 20 g soil was dissolved in 100 ml 1M KCl and shaken for 1 hour, followed by filtration through Whatmann® paper. The filtrate was used to measure pH, NH4^+ and NO3− concentrations.
A set of examples was tested in the same conditions (Moorslede soil, 3 days of incubation) at a concentration of 50 μM.
Another set of examples was tested in different concentrations in Moorslede soil as well, and were sampled after 5 days.
The effect of 3H-1,3-thiazole-2-thione was tested in soil in accordance with the test described above in section 3.3.

Moorslede soil [2] = test: Greenhouse gas emissions from soil fertilized with ammonium, Moorslede soil
Method: (§1) Two agricultural soils coming from fields in Moorslede and Sint-Laureins were used. Screw top vials were filled with 10 g soil. Vials were sealed with Parafilm and preincubated at 21° C. in the dark for 5 days. After pre-incubation, vials were ventilated using a fan. The 100 μL of a 1 mM compound solution (10% DMSO) was added, immediately followed by the addition of 100 μL 200 mM NH4Cl. Vials were closed gastight and 5 mL synthetic air was added to the headspace using a plastic syringe, followed by the transfer of 5 mL headspace to an evacuated 3 mL exetainer. Vials were incubated at 21° C. in the dark and background NO concentration was noted. At each sampling timepoint, 5 mL synthetic air was added again to the headspace using a plastic syringe, again followed by the transfer of 5 mL headspace to an evacuated 3 mL exetainer. Vials were ventilated and closed again, and new gas samples were transferred to texetainers like before. N2O, CO2, CH4 in the exetainers were measured via gas chromatography. NO concentration was measured directly.
(§2) To further confirm the inhibitory effect of the new class of nitrification inhibitors on nitrogen losses, gas emissions from soil fertilized with ammonium and treated with 1,3-thiazolidine-2-thione were captured. NO, N2O, CO2 and CH4 was measured.

Sint-Laureins soil = test: Greenhouse gas emissions from soil fertilized with ammonium, Sint-Laureins soil
Method: as §1, §2

Nitrosomonas europaea = test: Nitrification inhibition assay with Nitrosomonas europaea (nitrite level after 24 h); assay type: cell-based; conditions: Nitrosomonas europaea
Method: (§3) The compounds of formula (I) and (II) and (III)/(IV) were tested for their nitrification inhibition effect in two screens, using assays with the nitrifying bacteria N. europaea and N. multiformis. In practice, ammonium and candidate nitrification inhibitors (at 100 μM) were added to a dense bacterial culture in multiwell culture plates and after 24 h of incubation, the nitrite level was measured. To normalize for differences between batches of cultures and multiwell culture plates, for each well a relative nitrification was calculated that was normalized towards both the negative and positive controls (see “Material and Methods” below for full details).
(§4) Nitrite (NO2−) was measured using the Griess reagent (Product number: G4410, Griess reagent (modified), Sigma-Aldrich). Equal volumes of the sample or a diluted sample and the Griess reagent were mixed a transparent flat bottom multi-well plate and incubated in the dark at room temperature for 10 minutes. Absorbance values at 540 nm were measured spectrophotometrically (EnVision, Perkin Elmer®) and used to calculate the [NO2−] by use of a standard curve.
To prepare a high-throughput nitrification inhibition assay using N. europaea, late-log phase cultures were subcultivated two days before the assay. Just before the assay, the cultures were 5 times overconcentrated with fresh growth medium after centrifugation (4000 rpm, 15 min, 5° C.) in 50 mL centrifuge tubes (Cat. No. 430829, CentriStar™ Conical Centrifuge Tubes, Corning®). Per batch, all the cultures were pooled in one sterile Schott bottle and subsequently dispensed into 384-well plates (Cat. No. 781086, CELL-STAR® plate, Greiner Bio-One; 50 μl/well) by use of a dispenser (Multidrop™ Combi Reagent Dispenser, Thermo Scientific™) that was first flushed with growth medium. Specifically for the high-throughput screen for new nitrification inhibitors, 0.5 μl of 99.99% DMSO (negative control—final concentration 1%) was added to the outer two columns on the left side of the plate and 0.5 μl of 10 mM DMP (3,4-dimethylpyrazole, positive control—final concentration 100 μM) was added to the outer two columns on the right side manually. Finally, 0.5 μl of candidate nitrification inhibitors (5 mM stock solutions in 99.99% DMSO—final concentration 50 μM) were added to the central wells using a pin tool on a Tecan robot (Freedom EVO®, Tecan). In between additions, the pins were washed in sequence with 99.5% DMSO, MilliQ water and 100% ethanol and air-dried. All plates were separately wrapped in Parafilm. Stacks of 4 plates were put on top of a 96-well plate filled with 100 μl MilliQ per well, covered with aluminum foil and shaken at 150 rpm at 28° C. 24 h later, NO2− production was assessed. For this, the samples were first 200 times diluted by pipetting 1.5 μl of samples into 300 μl of fresh growth medium in intermediate plates (Cat. No. 353077, Falcon® 96-well Clear Round Bottom Microplate, Corning®), to then mix 15 μl of the diluted samples with 15 μl Griess reagent in the wells of a transparent, flat bottom 384-well plate (Cat. No. X^7001, Low Profile Microplate, Molecular Devices) that was measured spectrophotometrically at 540 nm (EnVision, Perkin Elmer®).
(§5) To assess the efficacy of the compounds (in terms of nitrification inhibition) and to enable comparison between plates and batches of cultures, we calculated the relative nitrification. More in detail, all nitrite results were normalized towards both a negative control, containing no compound, and a positive control, containing the benchmark (100 μM DMP), using Equation 1. This normalization was done per multi-well plate and each plate contained 32 positive and 32 negative controls.
IC50 values, that is the concentration that inhibits 50% of the nitrification, were calculated after fitting a logistic curve to 8-point dose response data, using doses between 2 and 100 μM with 1.75 fold steps. […]

Nitrosospira multiformis = test: Nitrification inhibition assay with Nitrosospira multiformis (nitrite level after 24 h); assay type: cell-based; conditions: Nitrosospira multiformis
Method: as §3, §4
Cultures were first 5 times overconcentrated in fresh 181-medium by centrifugation (4000 rpm, 15 min, 5° C.) in 50 mL centrifuge tubes (Cat. No. 430829, CentriStar™ Conical Centrifuge Tubes, Corning®). Per batch, all the cultures were pooled in one sterile Schott bottle and subsequently dispensed in 384-well plates (Cat. No. 781086, CELLSTAR® plate, Greiner BioOne; 50 μl/well) by use of a dispenser (Multidrop™ Combi Reagent Dispenser, Thermo Scientific™) that was first flushed with 181-medium. 0.5 μl of 99.99% DMSO (negative control—final concentration […] was added to the outer two columns on the left side of the plate and 0.5 μl of 10 mM DMP (3,4-dimethylpyrazole, positive control—final concentration 100 μM) was added to the outer two columns on the right side manually. Finally, 0.5 μl of candidate nitrification inhibitors (5 mM stock solutions in 99.99% DMSO—final concentration 50 μM) were added to the central wells using a pin tool on a Tecan robot (Freedom EVO®, Tecan). In between additions, the pins were washed in sequence with 99.5% DMSO, MilliQ water and 100% ethanol and air-dried. All plates were separately wrapped in Parafilm. Stacks of 4 plates were put on top of a 96-well plate filled with 100 μl MilliQ per well, covered with aluminum foil and shaken (±150 rpm) at 30° C. 24 h later, NO2− production was assessed. For this, the samples were first 100 times diluted by pipetting 3 μl of samples into 300 μl fresh growth medium in intermediate plates (Cat. No. 353077, Falcon® 96-well Clear Round Bottom Microplate, Corning®) to then mix 15 μl of the diluted samples with 15 μl Griess reagent in the wells of a transparent, flat bottom 384-well plate (Cat. No. X^7001, Low Profile Microplate, Molecular Devices) that was measured spectrophotometrically at 540 nm (EnVision, Perkin Elmer®).
as §5
IC50 values, that is the concentration that inhibits 50% of the nitrification, were calculated after fitting a logistic curve to 8-point dose response data, using doses between 2 and 100 μM with 1.75 fold steps. If a concentration of 2 μM already inhibited nitrification, the IC50 value could not be calculated. In that case, IC50 values represent the dose that gives inhibition closest to 50%.
The compounds of formula (I) and (II) were tested for their nitrification inhibition effect in two screens, using assays with the nitrifying bacteria N. europaea and N. multiformis. […]

[3] = 8-point dose response, 2 to 100 μM, read-out: IC50

Compound: S=C1NCCS1 [Example 3, 1,3-thiazolidine-2-thione]
- inhibition at 20 µM (Moorslede soil [1]; 20 μM, read-out: Average % nitrification inhibition in soil (5 days of incubation, Moorslede soil) at 20 μM): 7%
- Cumulative emission at indicated timepoint [ppm] (Moorslede soil [2]; CH4, 4 h): 0.20 ppm
- Cumulative emission at indicated timepoint [ppm] (Moorslede soil [2]; CH4, 24 h): 0.38 ppm
- Cumulative emission at indicated timepoint [ppm] (Moorslede soil [2]; CH4, 48 h): 0.38 ppm
- Cumulative emission at indicated timepoint [ppm] (Moorslede soil [2]; CH4, 72 h): 0.51 ppm
- Cumulative emission at indicated timepoint [ppm] (Moorslede soil [2]; CH4, 99 h): 0.51 ppm
- Cumulative emission at indicated timepoint [ppm] (Moorslede soil [2]; CO2, 4 h): 619 ppm
- Cumulative emission at indicated timepoint [ppm] (Moorslede soil [2]; CO2, 24 h): 2385 ppm
- Cumulative emission at indicated timepoint [ppm] (Moorslede soil [2]; CO2, 48 h): 4261 ppm
- Cumulative emission at indicated timepoint [ppm] (Moorslede soil [2]; CO2, 72 h): 6195 ppm
- Cumulative emission at indicated timepoint [ppm] (Moorslede soil [2]; CO2, 99 h): 8131 ppm
- Cumulative emission at indicated timepoint [ppm] (Moorslede soil [2]; N2O, 4 h): 0 ppm
- Cumulative emission at indicated timepoint [ppm] (Moorslede soil [2]; N2O, 24 h): 0 ppm
- Cumulative emission at indicated timepoint [ppm] (Moorslede soil [2]; N2O, 48 h): 0 ppm
- Cumulative emission at indicated timepoint [ppm] (Moorslede soil [2]; N2O, 72 h): 0 ppm
- Cumulative emission at indicated timepoint [ppm] (Moorslede soil [2]; N2O, 99 h): 0 ppm
- Cumulative emission at indicated timepoint [ppm] (Moorslede soil [2]; NO, 4 h): 25 ppm
- Cumulative emission at indicated timepoint [ppm] (Moorslede soil [2]; NO, 24 h): 28 ppm
- Cumulative emission at indicated timepoint [ppm] (Moorslede soil [2]; NO, 48 h): 43 ppm
- Cumulative emission at indicated timepoint [ppm] (Moorslede soil [2]; NO, 72 h): 65 ppm
- Cumulative emission at indicated timepoint [ppm] (Moorslede soil [2]; NO, 99 h): 65 ppm
- effect on CH4 emission, in words (Moorslede soil [2]; cumulative, incubation of 99 h): No significant effects
- effect on CO2 emission, in words (Moorslede soil [2]; cumulative, incubation of 99 h): strongly reduced
- effect on N2O emission, in words (Moorslede soil [2]; cumulative, incubation of 99 h): strongly reduced
- effect on NO emission, in words (Moorslede soil [2]; cumulative, incubation of 99 h): strongly reduced
- Cumulative emission at indicated timepoint [ppm] (Sint-Laureins soil; CH4, 4 h): 0.00 ppm
- Cumulative emission at indicated timepoint [ppm] (Sint-Laureins soil; CH4, 24 h): 0.10 ppm
- Cumulative emission at indicated timepoint [ppm] (Sint-Laureins soil; CH4, 48 h): 0.16 ppm
- Cumulative emission at indicated timepoint [ppm] (Sint-Laureins soil; CH4, 72 h): 0.25 ppm
- Cumulative emission at indicated timepoint [ppm] (Sint-Laureins soil; CH4, 99 h): 0.25 ppm
- Cumulative emission at indicated timepoint [ppm] (Sint-Laureins soil; CO2, 4 h): 372 ppm
- Cumulative emission at indicated timepoint [ppm] (Sint-Laureins soil; CO2, 24 h): 1179 ppm
- Cumulative emission at indicated timepoint [ppm] (Sint-Laureins soil; CO2, 48 h): 2094 ppm
- Cumulative emission at indicated timepoint [ppm] (Sint-Laureins soil; CO2, 72 h): 3101 ppm
- Cumulative emission at indicated timepoint [ppm] (Sint-Laureins soil; CO2, 99 h): 4168 ppm
- Cumulative emission at indicated timepoint [ppm] (Sint-Laureins soil; N2O, 4 h): 0 ppm
- Cumulative emission at indicated timepoint [ppm] (Sint-Laureins soil; N2O, 24 h): 0 ppm
- Cumulative emission at indicated timepoint [ppm] (Sint-Laureins soil; N2O, 48 h): 1 ppm
- Cumulative emission at indicated timepoint [ppm] (Sint-Laureins soil; N2O, 72 h): 1 ppm
- Cumulative emission at indicated timepoint [ppm] (Sint-Laureins soil; N2O, 99 h): 2 ppm
- Cumulative emission at indicated timepoint [ppm] (Sint-Laureins soil; NO, 4 h): 17 ppm
- Cumulative emission at indicated timepoint [ppm] (Sint-Laureins soil; NO, 24 h): 52 ppm
- Cumulative emission at indicated timepoint [ppm] (Sint-Laureins soil; NO, 48 h): 86 ppm
- Cumulative emission at indicated timepoint [ppm] (Sint-Laureins soil; NO, 72 h): 140 ppm
- Cumulative emission at indicated timepoint [ppm] (Sint-Laureins soil; NO, 99 h): 161 ppm
- effect on CH4 emission, in words (Sint-Laureins soil; cumulative, incubation of 99 h): No significant effects
- effect on CO2 emission, in words (Sint-Laureins soil; cumulative, incubation of 99 h): strongly reduced
- effect on N2O emission, in words (Sint-Laureins soil; cumulative, incubation of 99 h): strongly reduced
- effect on NO emission, in words (Sint-Laureins soil; cumulative, incubation of 99 h): strongly reduced

- IC50 (Nitrosomonas europaea; [3]): 26 µM
- IC50 (Nitrosospira multiformis; [3]): > 100 µM
Compound: CSc1ncco1 [Example 39]
- inhibition at 50 µM (Moorslede soil [1]; 50 μM, read-out: % Nitrification inhibition in soil (5 days of incubation, Moorslede soil) at indicated concentration): 62%
- activity at 100 µM (Nitrosomonas europaea; tested concentration 100 μM, 24 h, normalized to DMSO (100%) and 100 μM DMP (0%), read-out: Nitrification (%) at tested concentration (0 = maximum activity)): 22%
- activity at 100 µM (Nitrosospira multiformis; tested concentration 100 μM, 24 h, normalized to DMSO (100%) and 100 μM DMP (0%), read-out: Nitrification at tested concentration (0 = maximum activity)): 52%
